Laboratory results as given in patent US20240287133A1, “PEPTIDE HAVING ACTIVITY OF PREVENTING HAIR LOSS OR PROMOTING HAIR GROWTH, AND USE THEREOF” (CAREGEN CO., LTD., priority 2021, published 2024).

Assays:
Assay type in all cases: cell-based, human
p-ERK = experiment: Western blotting of phosphorylated ERK in HHFDPC; details: peptide 500 nM, 5 μM, 50 μM, 24 hours, vs control not treated with the peptide, FIG. 2
Method: (§1) First, phosphorylated forms of AKT and ERK, which act as signaling molecules related to the proliferation of HHFDPC, were confirmed through Western blotting. Specifically, HHFDPC as in [Experiment Example 1-1] above was seeded at 4×10^5 cells/well in a 6-well culture plate, cultured in MSC complete medium (mesenchymal stem cell complete media) for 24 hours, and then the medium was replaced with serum free MSC complete medium and cultured for another 24 hours. Then, the HHFDPC was treated with the peptide of SEQ ID NO: 1 prepared in the Preparation Example at concentrations of 500 nM, 5 μM, and 50 µM, respectively, and cultured at 37° C. for 24 hours. As a positive control, minoxidil was treated at a concentration of 1 μM, and as a negative control, HHFDPC without any treatment was used. Then, Western blotting was performed to detect phosphorylated AKT and phosphorylated ERK. After washing with PBS, the cells were treated with 100 ? of lysis buffer to destroy cells, thereby obtaining cell lysate. After electrophoresis using a 10% SDS-PAGE gel, it was transferred to a PVDF membrane and blocked using 5% skim milk at room temperature for 30 minutes. […] After washing again with 0.1% PBS-T (0.1% Tween-20 in PBS) three times for 15 minutes each, p-AKT and p-ERK were detected by treatment with ECL solution (GE Healthcare, USA).

Ha3-II = experiment: RT-PCR of Ha3-II in HHORSC; details: peptide 500 nM, 5 μM, 50 μM, 72 hours, vs control without treatment, FIG. 6
Method: (§2) Specifically, HHORSC (human hair outer root sheath cell, Sciencell, USA) was seeded in a 6-well culture plate at 4×10^5 cells/well and then cultured in MSC complete medium (mesenchymal stem cell complete media) for 24 hours. Next, the medium was replaced with serum free MSC complete medium and cultured again for 24 hours. Then, the HHORSC was treated with the peptide of Preparation Example consisting of amino acid sequence of SEQ ID NO: 1 at concentrations of 500 nM, 5 μM, and 50 μM, respectively, and cultured at 37° C. for 72 hours. As a positive control, EGF was treated at a concentration of 50 nM, and as a negative control, HHORSC without any treatment was used. After washing with PBS, RNA was isolated by treating with 300 ? of easy blue (intron, Korea). Then, CDNA was synthesized using a cDNA synthesis kit (enzynomics, Korea) by quantification using nano drop, and PCR was performed using primer for Ha3-II, Keratin 14, and Keratin 19 (the base sequences of primer are listed in Table 3 below) and PCR premix (enzynomics, Korea). Electrophoresis was performed on a 1.5% agarose gel, and the mRNAs of Ha3-II, Keratin 14, and Keratin 19 were detected using a band analysis system (Bio-Rad gel image system).

MSX2 = experiment: RT-PCR of MSX2 in HHGMC; details: peptide 500 nM, 5 μM, 50 μM, 72 hours, vs untreated control, FIG. 7
Method: Specifically, HHGMC (human hair germinal matrix cell, Sciencell, USA) was seeded in a 6-well culture plate at 4×10^5 cells/well and then cultured in MSC complete medium (mesenchymal stem cell complete media) for 24 hours. Next, the medium was replaced with serum free MSC complete medium and cultured again for 24 hours. Then, the HHGMC was treated with the peptide of SEQ ID NO: 1 prepared in the Preparation Example at concentrations of 500 nM, 5 μM, and 50 µM, respectively, and cultured at 37° C. for 72 hours. As a positive control, EGF was treated at a concentration of 50 nM, and as a negative control, HHGMC without any treatment was used. After washing with PBS, RNA was isolated by treating with 300 ? of easy blue (intron, Korea). Next, cDNA was synthesized using a cDNA synthesis kit (enzynomics, Korea) by quantification using nano drop, and PCR was performed using primers for MSX2 (base sequences of primers are listed in Table 4 below) and PCR premix (enzynomics, Korea). Electrophoresis was performed on a 1.5% agarose gel, and MSX2 mRNA was detected using a band analysis system (Bio-Rad gel image system).

c-Myc = experiment: RT-PCR of c-Myc in HHFDPC; details: peptide 500 nM, 5 μM, 50 μM, 24 hours, vs control without treatment, FIG. 4
Method: (§3) Furthermore, in order to determine whether the β-catenin moves to the nucleus and is activated to affect proliferation and differentiation, whether the expression of LEF-1, c-Myc and cyclin D1 (cyclin D1), which act as downstream factors, increases with β-catenin activation was confirmed through RT-PCR. Specifically, in the same manner as the previous Western blotting experiment, HHFDPC cells were cultured, treated with the peptides of the Preparation Example of the present invention at concentrations of 500 nM, 5 μM, and 50 μM, respectively, and cultured at 37° C. for 24 hours. After washing the cells with PBS, RNA was isolated by treating them with 300 […] of easy blue (intron, Korea). Then, CDNA was synthesized using a cDNA synthesis kit (enzynomics, Korea) by quantifying it with nano drop, and PCR was performed using primers for LEF-1, c-Myc and cyclin D1 (base sequences of the primers are listed in Table 2 below) and PCR premix (enzynomics, Korea). Electrophoresis was performed on a 1.5% agarose gel, and then the mRNA of LEF-1 and cyclin D1 was detected using a band analysis system (Bio-Rad gel image system).

LEF-1 = experiment: RT-PCR of LEF-1 in HHFDPC; details: peptide 500 nM, 5 μM, 50 μM, 24 hours, vs control without treatment, FIG. 4
Method: as §3

HHFDPC = experiment: MTT proliferation of dermal papilla cells; details: peptide 500 nM, 5 μM, 50 μM, 72 hours, vs untreated control, FIG. 1
Method: While culturing human hair follicle dermal dermal papilla cells (HHFDPC), the absorbance was measured after treatment with the peptide of the present invention to confirm whether there was an effect of promoting the proliferation of the HHFDPC dermal papilla cells.
Specifically, HHFDPC (Sciencell, USA) was seeded at 4×10^3 cells/well in a 96-well culture plate, cultured in MSC complete medium (mesenchymal stem cell complete media, Sciencell, USA) for 24 hours, and then the medium was replaced with serum free MSC complete medium and cultured for another 24 hours. Then, the HHFDPC was treated with the peptide of SEQ ID NO: 1 prepared in the Preparation Example at concentrations of 500 nM, 5 µM, and 50 μM, respectively, and cultured at 37° C. for 72 hours. As a positive control, minoxidil was treated at a concentration of 1 μM, and as a negative control, HHFDPC without any treatment was used. Then, 10 ? of 5 mg/mL MTT solution was added and cultured in a 37° C. CO2 incubator for 4 hours to stain the cells. After removing the medium, the cells were treated with 100 μl of DMSO and shaken for 10 minutes, and the number of HHFDPC cells was confirmed by measuring absorbance at a wavelength of 540 nm using a spectrophotometer.

Keratin 14 = experiment: RT-PCR of Keratin 14 in HHORSC; details: peptide 500 nM, 5 μM, 50 μM, 72 hours, vs control without treatment, FIG. 6
Method: as §2

DKK-1 protein = experiment: Western blotting of DKK-1 protein in DHT-treated HHFDPC; details: HHFDPC with DHT 100 nM, peptide 500 nM, 5 μM, 50 μM, 24 hours, vs negative control (DHT only), FIG. 5
Method: DKK-1 protein (dickkopf-related protein 1) is a hair loss-related protein known to be highly expressed in individuals with hair loss, especially male pattern hair loss, and its expression is known to be promoted by hormones such as DHT (Dihydrotestosterone). Accordingly, the expression of DKK-1 protein was induced by treating HHFDPC cells with DHT together with the peptide according to the Preparation Example of the present invention, and then the expression level of DKK-1 was measured through Western blotting to determine whether there was an effect of suppressing the expression of DKK-1 protein.
Specifically, HHFDPC as in [Experiment Example 1-1] was seeded in a 6-well culture plate at 4×10^5 cells/well and then cultured in MSC complete medium (mesenchymal stem cell complete media) for 24 hours. Next, the medium was replaced with serum free MSC complete medium and cultured again for 24 hours. In addition, the HHFDPC was treated with the peptide of SEQ ID NO: 1 prepared in Preparation Example at concentrations of 500 nM, 5 μM, and 50 μM, respectively, and at this time, DHT, an expression inducer of DKK-1 protein, was simultaneously treated at a concentration of 100 nM and then cultured at 37° C. for 24 hours. […] After washing again with 0.1% PBS-T (0.1% Tween-20 in PBS) three times for 15 minutes each, DKK-1 protein was detected by treatment with ECL solution (GE Healthcare, USA).

β-catenin = experiment: Western blotting of β-catenin moved into the nucleus of HHFDPC; details: HHFDPC nuclear protein, peptide 500 nM, 5 μM, 50 μM, 24 hours, vs control, FIG. 3
Method: In addition, in addition to p-AKT and p-ERK, in order to confirm the activation of β-catenin, which is known to affect cell proliferation and differentiation, whether β-catenin moved into the nucleus was confirmed through Western blotting. Specifically, the HHFDPC as in [Experiment Example 1-1] was seeded in a 6-well culture plate at an amount of 4×10^5 cells/well, cultured in MSC complete medium (mesenchymal stem cell complete media) for 24 hours. Next, the medium was replaced with serum free MSC complete medium and cultured again for 24 hours. Then, the HHFDPC was treated with the peptide of SEQ ID NO: 1 prepared in the Preparation Example at concentrations of 500 nM, […], and 50 μM, respectively, and cultured at 37° C. for 24 hours. As a positive control, minoxidil was treated at a concentration of 1 μM, and as a negative control, HHFDPC without any treatment was used. After washing with PBS, proteins in the nucleus were isolated using a nuclear protein extraction kit (Thermo scientific, USA). After electrophoresis using a 10% SDS-PAGE gel, it was transferred to a PVDF membrane and blocked using 5% skim milk at room temperature for 30 minutes. […] After washing again with 0.1% PBS-T (0.1% Tween-20 in PBS) three times for 15 minutes each, β-catenin was detected by treatment with ECL solution (GE Healthcare, USA).

Keratin 19 = experiment: RT-PCR of Keratin 19 in HHORSC; details: peptide 500 nM, 5 μM, 50 μM, 72 hours, vs control without treatment, FIG. 6
Method: as §2

cyclin D1 = experiment: RT-PCR of cyclin D1 in HHFDPC; details: peptide 500 nM, 5 μM, 50 μM, 24 hours, vs control without treatment, FIG. 4
Method: as §3

p-AKT = experiment: Western blotting of phosphorylated AKT in HHFDPC; details: peptide 500 nM, 5 μM, 50 μM, 24 hours, vs control not treated with the peptide, FIG. 2
Method: as §1

CPRHENPVC [the peptide of the present invention]
p-ERK phosphorylation (p-ERK): phosphorylation was found to be increased | Ha3-II mRNA (Ha3-II): the amount of mRNA increased further | MSX2 mRNA (MSX2): the amount of mRNA increased further | c-Myc mRNA (c-Myc): the amount of mRNA increased further | LEF-1 mRNA (LEF-1): the amount of mRNA increased further | proliferation of HHFDPC (absorbance at 540 nm, MTT) (HHFDPC): the proliferation of HHFDPC was promoted | Keratin 14 mRNA (Keratin 14): the amount of mRNA increased further | amount of DKK-1 protein (DKK-1 protein): the amount of DKK-1 protein was found to be reduced | β-catenin moved into the nucleus (β-catenin): migration due to activation of β-catenin increased | Keratin 19 mRNA (Keratin 19): the amount of mRNA increased further | cyclin D1 mRNA (cyclin D1): the amount of mRNA increased further | p-AKT phosphorylation (p-AKT): phosphorylation was found to be increased
